The results in this text go back to ChEMBL document CHEMBL3621099, “Design and synthesis of carbazole carboxamides as promising inhibitors of Bruton's tyrosine kinase (BTK) and Janus kinase 2 (JAK2)” (Bioorg Med Chem Lett, 2015).

The target of the first assay is Tyrosine-protein kinase JAK2 (Homo sapiens, UniProt O60674). In words: Inhibition of JAK2 (unknown origin).
Sequence of Tyrosine-protein kinase JAK2 (O60674 whole entry): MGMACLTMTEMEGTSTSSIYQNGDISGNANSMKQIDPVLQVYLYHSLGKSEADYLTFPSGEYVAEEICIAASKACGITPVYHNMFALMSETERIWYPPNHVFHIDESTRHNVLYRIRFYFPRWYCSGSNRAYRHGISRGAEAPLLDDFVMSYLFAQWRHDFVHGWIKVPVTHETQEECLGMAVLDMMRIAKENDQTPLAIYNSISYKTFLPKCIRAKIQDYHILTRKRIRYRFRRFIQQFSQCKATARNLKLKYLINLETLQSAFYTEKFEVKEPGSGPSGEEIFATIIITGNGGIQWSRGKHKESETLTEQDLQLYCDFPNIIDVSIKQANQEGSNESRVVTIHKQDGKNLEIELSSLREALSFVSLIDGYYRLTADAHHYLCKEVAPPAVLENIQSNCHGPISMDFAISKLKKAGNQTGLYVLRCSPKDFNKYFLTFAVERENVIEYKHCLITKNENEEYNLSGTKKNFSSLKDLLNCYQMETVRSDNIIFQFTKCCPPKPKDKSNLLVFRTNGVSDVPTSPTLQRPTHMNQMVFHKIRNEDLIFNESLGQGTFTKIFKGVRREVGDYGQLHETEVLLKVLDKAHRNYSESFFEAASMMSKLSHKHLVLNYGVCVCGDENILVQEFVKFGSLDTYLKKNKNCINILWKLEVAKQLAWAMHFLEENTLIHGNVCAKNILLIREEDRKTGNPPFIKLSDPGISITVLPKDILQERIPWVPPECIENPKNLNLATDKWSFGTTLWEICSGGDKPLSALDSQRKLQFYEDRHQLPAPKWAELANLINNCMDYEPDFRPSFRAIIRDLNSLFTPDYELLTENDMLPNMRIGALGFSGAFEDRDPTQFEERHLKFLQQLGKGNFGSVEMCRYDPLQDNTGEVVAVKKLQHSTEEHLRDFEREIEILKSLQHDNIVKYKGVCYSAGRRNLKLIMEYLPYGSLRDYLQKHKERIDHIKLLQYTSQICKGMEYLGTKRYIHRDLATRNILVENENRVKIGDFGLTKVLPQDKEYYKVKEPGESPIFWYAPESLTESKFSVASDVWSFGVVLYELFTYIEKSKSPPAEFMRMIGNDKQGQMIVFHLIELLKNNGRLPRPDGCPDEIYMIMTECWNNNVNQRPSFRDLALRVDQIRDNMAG
As for `CN1CCN(C(=O)c2ccc3c(c2)[nH]c2c(C(N)=O)cc(-c4ccc(Cl)c(Cl)c4)cc23)CC1`, the midpoint of inhibition, the IC50, lay at 6.2 nM.

For the compound `NC(=O)c1cc(-c2ccc(Cl)cc2)cc2c1[nH]c1ccc(C(=O)N3CCOCC3)cc12`, half-maximal inhibition (IC50) required 2.6 nM.

Turning to `NC(=O)c1cc(-c2cccc(Cl)c2)cc2c1[nH]c1ccc(C(=O)N3CCOCC3)cc12`, the IC50 (in general, the concentration that inhibits the measured activity by half) is 1.7 nM.

Compound `CC(=O)Nc1cccc(-c2cc(C(N)=O)c3[nH]c4cc(C(=O)N5CCN(C)CC5)ccc4c3c2)c1` came in with an IC50 of 27 nM.

`COc1cccc(-c2cc(C(N)=O)c3[nH]c4cc(C(=O)N5CCN(C)CC5)ccc4c3c2)c1`: the half-maximal inhibitory concentration (IC50) amounted to 4.3 nM.

The compound `COc1ccc(-c2cc(C(N)=O)c3[nH]c4ccc(C(=O)N5CCOCC5)cc4c3c2)cc1` displayed an IC50 of 2 nM.

Compound `COc1ccc(-c2cc(C(N)=O)c3[nH]c4cc(C(=O)N5CCN(C)CC5)ccc4c3c2)cc1` registered an IC50 of 5.5 nM.

The target of a further assay is Tyrosine-protein kinase BTK (Homo sapiens, UniProt Q06187). In words: Inhibition of human recombinant BTK.
Sequence of Tyrosine-protein kinase BTK (Q06187 whole entry): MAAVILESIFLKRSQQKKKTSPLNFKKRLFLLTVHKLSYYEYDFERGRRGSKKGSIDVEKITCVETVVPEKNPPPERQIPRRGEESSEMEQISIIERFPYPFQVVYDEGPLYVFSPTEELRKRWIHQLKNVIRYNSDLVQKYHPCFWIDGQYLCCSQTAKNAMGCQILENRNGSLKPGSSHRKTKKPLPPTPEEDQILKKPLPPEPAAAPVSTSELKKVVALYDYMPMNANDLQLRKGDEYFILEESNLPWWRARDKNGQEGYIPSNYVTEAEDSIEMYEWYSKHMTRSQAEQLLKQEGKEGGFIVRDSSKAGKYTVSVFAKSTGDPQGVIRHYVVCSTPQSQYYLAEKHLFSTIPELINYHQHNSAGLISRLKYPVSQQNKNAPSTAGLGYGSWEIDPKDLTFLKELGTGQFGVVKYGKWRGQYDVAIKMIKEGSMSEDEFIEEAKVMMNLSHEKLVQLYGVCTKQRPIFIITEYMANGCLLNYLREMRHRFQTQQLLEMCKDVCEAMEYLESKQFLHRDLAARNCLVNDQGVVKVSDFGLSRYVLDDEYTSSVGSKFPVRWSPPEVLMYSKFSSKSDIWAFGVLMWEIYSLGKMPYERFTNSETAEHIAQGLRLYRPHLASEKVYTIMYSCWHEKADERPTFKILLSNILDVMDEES
For `Cc1c(Cl)cccc1-c1ccc(C(N)=O)c2[nH]c3cc(C(=O)N4CCN(C)CC4)ccc3c12`, the IC50 stood at 32 nM.

On to `CN1CCN(C(=O)c2ccc3c(c2)[nH]c2c(C(N)=O)cc(-c4ccc(Cl)c(Cl)c4)cc23)CC1`, for which the IC50 was determined as 812 nM.

For `CC(=O)Nc1cccc(-c2ccc(C(N)=O)c3[nH]c4cc(C(=O)N5CCN(C)CC5)ccc4c23)c1`, the IC50 worked out at 30 nM.

As to `CN1CCN(C(=O)c2ccc3c(c2)[nH]c2c(C(N)=O)ccc(-c4ccc(Oc5ccccc5)cc4)c23)CC1`, the IC50 stood at 127 nM.

Turning to `CN1CCN(C(=O)c2ccc3[nH]c4c(C(N)=O)cc(-c5ccc(Cl)cc5)cc4c3c2)CC1`, the IC50 is 110 nM.

On to `COc1cccc(-c2cc(C(N)=O)c3[nH]c4ccc(C(=O)N5CCOCC5)cc4c3c2)c1`, for which the IC50 worked out at 360 nM.

In the case of `COc1ccc(-c2ccc(C(N)=O)c3[nH]c4cc(C(=O)N5CCN(C)CC5)ccc4c23)cc1`, the IC50 was determined as 55 nM.

As to `CNC(=O)c1cccc(-c2ccc(C(N)=O)c3[nH]c4cc(C(=O)N5CCN(C)CC5)ccc4c23)c1`, the IC50 amounted to 71 nM.

As for `NC(=O)c1cc(-c2ccc(Cl)cc2)cc2c1[nH]c1ccc(C(=O)N3CCOCC3)cc12`, the IC50 was found to be 308 nM.

Regarding `NC(=O)c1cc(-c2cccc(Cl)c2)cc2c1[nH]c1ccc(C(=O)N3CCOCC3)cc12`, the IC50 is 189 nM.

For `Cc1ccccc1-c1ccc(C(N)=O)c2[nH]c3cc(C(=O)N4CCN(C)CC4)ccc3c12`, the IC50 was 24 nM.

Regarding `CC(=O)Nc1cccc(-c2cc(C(N)=O)c3[nH]c4cc(C(=O)N5CCN(C)CC5)ccc4c3c2)c1`, the IC50 was determined as 379 nM.

`CN1CCN(C(=O)c2ccc3c(c2)[nH]c2c(C(N)=O)ccc(-c4ccc(Cl)c(Cl)c4)c23)CC1`: the IC50 was 101 nM.

For the compound `CN1CCN(C(=O)c2ccc3c(c2)[nH]c2c(C(N)=O)ccc(-c4c(F)cccc4F)c23)CC1`, the IC50 is 12 nM.

Consider `COc1cccc(-c2cc(C(N)=O)c3[nH]c4cc(C(=O)N5CCN(C)CC5)ccc4c3c2)c1`, for which the IC50 is 404 nM.

As for `CN1CCN(C(=O)c2ccc3c(c2)[nH]c2c(C(N)=O)ccc(-c4cccc(NC(=O)c5ccc(F)cc5)c4F)c23)CC1`, the IC50 was 9.4 nM.

As for `CNC(=O)c1ccc(-c2ccc(C(N)=O)c3[nH]c4cc(C(=O)N5CCN(C)CC5)ccc4c23)cc1`, the IC50 worked out at 44 nM.

For the compound `COc1ccccc1-c1ccc(C(N)=O)c2[nH]c3cc(C(=O)N4CCN(C)CC4)ccc3c12`, the 50% inhibitory concentration (IC50) amounted to 144 nM.

As for `COc1ccc(-c2cc(C(N)=O)c3[nH]c4ccc(C(=O)N5CCOCC5)cc4c3c2)cc1`, the IC50 was 327 nM.

As to `Cc1c(N)cccc1-c1ccc(C(N)=O)c2[nH]c3cc(C(=O)N4CCN(C)CC4)ccc3c12`, the IC50 came to 19 nM.

`CC(=O)Nc1ccc(-c2ccc(C(N)=O)c3[nH]c4ccc(C(=O)N5CCN(C)CC5)cc4c23)cc1`: the IC50 is 39 nM.

As to `CN1CCN(C(=O)c2ccc3c(c2)[nH]c2c(C(N)=O)ccc(-c4ccc(F)cc4F)c23)CC1`, the IC50 amounted to 22 nM.

On to `COc1cccc(-c2ccc(C(N)=O)c3[nH]c4cc(C(=O)N5CCN(C)CC5)ccc4c23)c1`, for which the IC50 amounted to 32 nM.

For the compound `CN1CCN(C(=O)c2ccc3c(c2)[nH]c2c(C(N)=O)ccc(-c4cccc(Cl)c4Cl)c23)CC1`, the IC50 was 13 nM.

For the compound `Cc1c(NC(=O)c2ccccc2)cccc1-c1ccc(C(N)=O)c2[nH]c3cc(C(=O)N4CCN(C)CC4)ccc3c12`, the IC50 was determined as 7.2 nM.

On to `NC(=O)c1cc(-c2ccc(Cl)c(Cl)c2)cc2c1[nH]c1ccc(C(=O)N3CCOCC3)cc12`, for which the IC50 was determined as 461 nM.

`CN1CCN(C(=O)c2ccc3c(c2)[nH]c2c(C(N)=O)ccc(-c4ccc(C(C)(C)C)cc4)c23)CC1`: the IC50 was 103 nM.

Turning to `COc1cccc(-c2ccc(C(N)=O)c3[nH]c4ccc(C(=O)N5CCN(C)CC5)cc4c23)c1`, the IC50 amounted to 28 nM.

For `CN1CCN(C(=O)c2ccc3c(c2)[nH]c2c(C(N)=O)ccc(-c4cccc(NC(=O)c5ccc(F)cc5)c4)c23)CC1`, the IC50 was 39 nM.

In the case of `CN1CCN(C(=O)c2ccc3c(c2)[nH]c2c(C(N)=O)ccc(-c4cccc(F)c4F)c23)CC1`, the IC50 turned out to be 6.9 nM.

`Cc1c(NC(=O)c2ccc(N(C)C)cc2)cccc1-c1ccc(C(N)=O)c2[nH]c3cc(C(=O)N4CCN(C)CC4)ccc3c12`: the IC50 was 3.5 nM.

On to `Cc1c(NC(=O)c2ccc(F)cc2)cccc1-c1ccc(C(N)=O)c2[nH]c3cc(C(=O)N4CCN(C)CC4)ccc3c12`, for which the concentration for half-maximal inhibition (IC50) was 3.8 nM.

For the compound `CC(=O)Nc1ccc(-c2ccc(C(N)=O)c3[nH]c4cc(C(=O)N5CCN(C)CC5)ccc4c23)cc1`, the IC50 was found to be 15 nM.

For the compound `CN1CCN(C(=O)c2ccc3c(c2)[nH]c2c(C(N)=O)ccc(-c4ccc(Cl)cc4)c23)CC1`, the IC50 amounted to 59 nM.

With `CC(=O)Nc1cccc(-c2ccc(C(N)=O)c3[nH]c4ccc(C(=O)N5CCN(C)CC5)cc4c23)c1`, the IC50 was 88 nM.

As for `COc1ccc(-c2ccc(C(N)=O)c3[nH]c4ccc(C(=O)N5CCN(C)CC5)cc4c23)cc1`, the IC50 turned out to be 29 nM.

Take `COc1ccc(-c2cc(C(N)=O)c3[nH]c4cc(C(=O)N5CCN(C)CC5)ccc4c3c2)cc1`: the half-maximal inhibitory concentration (IC50) was found to be 436 nM.

For the compound `CN1CCN(C(=O)c2ccc3c(c2)[nH]c2c(C(N)=O)ccc(-c4cccc(Cl)c4)c23)CC1`, the IC50 is 38 nM.

With `Cc1c(NC(=O)c2ccc(C(C)(C)C)cc2)cccc1-c1ccc(C(N)=O)c2[nH]c3cc(C(=O)N4CCN(C)CC4)ccc3c12`, the IC50 is 12 nM.
